Two molecules from article PMC6328587 (Nature Communications, 2019) can be followed below.

Structures are written as SMILES.

In one test the test system is α-tubulin. The test can be described thus: CETSA in MDA-MB-231 cell lysate, negative control protein. Type of test: binding, human. Particulars: 100 µM PROTAC, 51-55 °C, vs DMSO. Here is the method:
(§1) CETSA protocol was adapted from[60]. In all, 3 × 10^7 MDA-MB-231 cells (1 × 10^7 cells per condition) were collected and resuspended in ice-cold 1X PBS supplemented with 1X protease inhibitor cocktail (Roche) and lysed by three cycles of liquid nitrogen snap freeze, followed by 50% thaw in a room temperature water bath and an additional 50% thaw at 4 °C. After each freeze–thaw cycle, lysate was vortexed briefly to ensure homogenous thawing. Lysate was then cleared for 20 min by centrifugation (14,000 × g at 4 °C) and the soluble fraction was divided into three equal aliquots. The aliquots were treated with vehicle (2.5% DMSO), 100 µM SJFα, or 100 µM SJFδ and incubated at room temperature for 30 min with gentle rotation. Each aliquot was then divided (50 µL) into eight PCR tubes and individually heated at the indicated temperature for 3 min followed by cooling at room temperature for 3 min. After cooling, samples were spun down for 20 min (14,000 × g at 4 °C) and the supernatant (soluble fraction) was analyzed by SDS-PAGE and immunoblotted for p38δ and alpha-tubulin (negative control).

A further test concerns the target T1, p38δ (Homo sapiens, UniProt O15264).
T1 construct: endogenous in cells; host or cells: MDA-MB-231
T1 sequence (O15264 1-365): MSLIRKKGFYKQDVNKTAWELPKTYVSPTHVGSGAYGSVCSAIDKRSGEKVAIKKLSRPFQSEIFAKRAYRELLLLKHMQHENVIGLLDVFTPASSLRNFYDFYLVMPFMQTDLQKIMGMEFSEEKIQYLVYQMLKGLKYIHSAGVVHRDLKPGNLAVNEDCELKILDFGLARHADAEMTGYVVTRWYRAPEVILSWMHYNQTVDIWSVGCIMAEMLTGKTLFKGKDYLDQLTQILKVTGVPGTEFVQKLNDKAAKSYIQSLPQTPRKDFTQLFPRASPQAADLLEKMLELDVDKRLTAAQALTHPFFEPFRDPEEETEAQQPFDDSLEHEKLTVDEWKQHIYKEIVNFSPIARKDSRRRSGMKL
Kind of test: CETSA in MDA-MB-231 cell lysate, p38δ. Type of test: binding. The following applies: 100 µM PROTAC, 51-55 °C, vs DMSO. As for the experimental part:
as §1

The target of test [1] is T2, p38δ:PROTAC:VHL ternary complex (Homo sapiens, UniProt O15264+P40337).
T2 construct: encoding a region spanning amino acids 1–365; His6 (N); made in house; host or cells: E. coli BL21-CodonPlus(DE3)-RIPL (p38δ); E. coli BL21(DE3) (GST-VBC)
Kind of test: In vitro ternary complex pull-down, GST-VBC bait, purified p38δ. Type of test: binding. The following applies: dose-dependent. As for the experimental part: Glutathione Sepharose 4B (Glutathione-conjugated beads in a slurry containing 20% ethanol) were washed twice with 1X wash buffer (50 mM HEPES pH 7.5, 150 mM NaCl, 1 mM DTT, 0.01% NP40, 5 mM MgCl2, 10% Glycerol) and then blocked for 1 h at room temperature with 10% bovine serum albumin (BSA) in wash buffer. The beads were then washed again three times with wash buffer and then purified GST-VBC (stable form of VHL complexed with EloB/EloC, described above) was immobilized for 1 h at 4 °C at 3.6 pmole µL^–1 of beads. The beads were then washed three times with wash buffer, resuspended, divided into two equal volumes, and p38α or p38δ protein was added. The bead:p38 mixture was then aliquoted to separate tubes and PROTAC was added at the indicated concentration (PROTACs were intermediately diluted in 10% DMSO and 0.25% CHAPS). This mixture was incubated at 4 °C for 2 h. The beads were washed three times with 10 column volumes of wash buffer and then eluted with SDS loading buffer at 75 °C for 10 min.

For a further test, the target named is T3, p38β (Homo sapiens, UniProt Q15759).
T3 construct: endogenous in cells; host or cells: MDA-MB-231
Kind of test: p38β degradation, western blot in MDA-MB-231 cells. Type of test: cell-based. The following applies: concentrations up to 2.5 µM. As for the experimental part:
[…] once with ice-cold PBS (1 × ), followed by lysis in buffer containing 25 mM Tris [pH 7.5], 0.25% sodium deoxycholate, 1% Triton X-100, supplemented with 1X protease inhibitor cocktail (Roche), and phosphatase inhibitors (10 mM NaF, 1 mM Na3VO4, and 20 mM β-glycerophosphate), unless otherwise noted. Lysates were spun at 14,000 × g for 10 min at 4 °C and supernatant was evaluated for protein content using a Pierce BCA Protein Assay (ThermoFisher Scientific). In all experiments, 25–50 μg of protein was loaded onto 10% SDS-PAGE gels or 4–20% Criterion TGX precast gradient gels (Bio-Rad), transferred to nitrocellulose membranes, and probed with the specified antibodies overnight at 4 °C in 1X TBS-Tween (Tris-buffered saline plus 0.02% Tween 20) containing 5% non-fat milk. Immunoblots were visualized using a Bio-Rad ChemiDoc imaging instrument and subsequently processed and quantified using the accompanying Bio-Rad ImageLab software. See Supplementary Figure 8 for uncropped scans of western blots shown in the main text figures.
Supplementary Figure 4 cont.
Supplementary Figure 4. Characterization of M APK fam ily degradation selectivity (related to Figures 1-2). (a) p38 M APK fam ily m em bers (α, β, δ, γ) were aligned using the T-Coffee multiple sequence alignm ent server. […] Note: JNK1 and JNK2 are expressed as two alternatively-spliced form s. […]

T2 sequence (P40337 whole entry, one chain of several, the tested form may be a part): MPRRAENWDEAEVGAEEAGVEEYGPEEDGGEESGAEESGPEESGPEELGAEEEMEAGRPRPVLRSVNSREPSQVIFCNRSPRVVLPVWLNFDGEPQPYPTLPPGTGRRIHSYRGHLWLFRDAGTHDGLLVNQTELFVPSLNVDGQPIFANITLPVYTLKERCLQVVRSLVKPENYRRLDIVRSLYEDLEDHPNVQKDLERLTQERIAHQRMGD
T2 sequence (Q15370 whole entry partner, one chain of several, the tested form may be a part): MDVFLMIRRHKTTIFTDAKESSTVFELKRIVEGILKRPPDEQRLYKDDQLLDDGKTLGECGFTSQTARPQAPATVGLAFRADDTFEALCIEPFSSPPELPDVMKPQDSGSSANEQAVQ
T2 sequence (Q15369 whole entry partner, one chain of several, the tested form may be a part): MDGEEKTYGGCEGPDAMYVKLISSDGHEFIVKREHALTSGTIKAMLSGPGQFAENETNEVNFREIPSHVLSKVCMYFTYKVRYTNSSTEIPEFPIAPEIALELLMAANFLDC
T3 sequence (Q15759 whole entry): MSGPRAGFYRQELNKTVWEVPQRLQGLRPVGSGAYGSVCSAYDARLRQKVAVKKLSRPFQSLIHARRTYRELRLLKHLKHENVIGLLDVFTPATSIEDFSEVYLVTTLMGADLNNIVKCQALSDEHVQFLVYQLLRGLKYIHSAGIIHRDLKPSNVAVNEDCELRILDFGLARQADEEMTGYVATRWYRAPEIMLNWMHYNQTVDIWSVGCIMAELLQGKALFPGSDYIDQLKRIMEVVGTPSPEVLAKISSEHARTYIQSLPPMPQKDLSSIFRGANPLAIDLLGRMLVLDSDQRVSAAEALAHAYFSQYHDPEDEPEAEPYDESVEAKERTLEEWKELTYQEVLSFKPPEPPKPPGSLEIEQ

Consider `COc1cc2c(Oc3ccc(NC(=O)C4(C(=O)Nc5ccc(F)cc5)CC4)cc3F)ccnc2cc1OCCCCOCCCCOCC(=O)N[C@H](C(=O)N1C[C@H](O)C[C@H]1C(=O)NCc1ccc(-c2scnc2C)cc1)C(C)(C)C` [SJFα], for which the “thermal shift of α-tubulin” value in the test on α-tubulin is given as “thermal shifts were not seen”. Also, the “thermal shift in the p38δ melting profile” value at p38δ is given as “small, but statistically significant”. The “pull-down of purified p38δ on GST-VBC-coated beads” value in test [1] is “can pull-down purified p38δ”. Also, the p38β degradation result on p38β was “does not degrade”.

Regarding `COc1cc2c(Oc3ccc(NC(=O)C4(C(=O)Nc5ccc(F)cc5)CC4)cc3F)ccnc2cc1OCCOCCOCCOc1cc(-c2scnc2C)ccc1CNC(=O)[C@@H]1C[C@@H](O)CN1C(=O)[C@H](C(C)C)N1Cc2ccccc2C1=O` [SJFδ], the “thermal shift of α-tubulin” value in the test on α-tubulin was “thermal shifts were not seen”. The “thermal shift in the p38δ melting profile” value on p38δ is recorded as “more pronounced at each melting temperature”. The “pull-down of purified p38δ on GST-VBC-coated beads” value in test [1] is “can pull-down purified p38δ”. Also, on p38β, the p38β degradation entry was “does not degrade”.
